Measured values from paper PMC4503722, “Novel Phenotypic Outcomes Identified for a Public Collection of Approved Drugs from a Publicly Accessible Panel of Assays” (PLoS ONE, 2015).
Like-named read-outs stand apart in the source and are kept apart here.

Legend:
DLD-1 = experiment: cells; type: cell-based
SW480 = experiment: cells; type: cell-based
[1] = system: ECFC/ADSC co-culture cell nuclei number
HCT116 = experiment: cells; type: cell-based
[2] = system: HCT116 cells treated with a GSK3β inhibitor; experiment: cells; type: cell-based; conditions: for IC50/EC50, GSK3b inh pretreated_Viability ATP HCT116 (assay number 26): GSK3b inh pretreated
HT-29 = experiment: cells; type: cell-based
[3] = system: endothelial tube formation in co-cultures of ECFCs and ADSCs treated with VEGF; experiment: cells; type: cell-based, human
SNU-C1 = experiment: cells; type: cell-based
Colo320 = experiment: cells; type: cell-based
RKO = experiment: cells; type: cell-based
[4] = assay number 26, GSK3b inhibitor pretreated
[5] = assay number 23, concentration response
[6] = assay number 24, concentration response
[7] = assay number 25, basal, concentration response
[8] = assay number 26, GSK3b inhibitor pretreated, concentration response
[9] = assay number 28, concentration response
[10] = assay number 30, concentration response
[11] = assay number 27, concentration response
[12] = assay number 29, concentration response

Cc1cc2nc3ccc(=[N+](C)C)cc-3sc2cc1N.[Cl-] [NCGC00181775-02]
Basal_Viability ATP DLD-1 IC50/EC50 (DLD-1): 9.38 µM
Basal_Viability ATP SW480 IC50/EC50 (SW480): 1.397 µM
VEGF_ADSC\ECFC Angio Hoechst NucArea IC50/EC50 [1]: 8.146 µM
Basal_Viability ATP HCT116 IC50/EC50 (HCT116): 2.782 µM
GSK3b inh pretreated_Viability ATP HCT116 IC50/EC50 [2]: 1.693 µM
Basal_Viability ATP HT-29 IC50/EC50 (HT-29): 5.063 µM
VEGF_ADSC\ECFC Angio CD31 TubeArea IC50/EC50 [3]: 2.45 µM
Basal_Viability ATP SNU-C1 IC50/EC50 (SNU-C1): 5.5567 µM
Basal_Viability ATP Colo 320 IC50/EC50 (Colo320): 0.9874 µM
Basal_Viability ATP RKO IC50/EC50 (RKO): 0.9955 µM

O=C1NCCN1CCN1CCC(c2cn(-c3ccc(F)cc3)c3ccc(Cl)cc23)CC1 [NCGC00181782-03]
IC50/EC50, Basal_Viability ATP DLD-1 (assay number 23) (DLD-1; basal): 5.6233 µM
IC50/EC50, Basal_Viability ATP SW480 (assay number 24) (SW480; basal): 2.8086 µM
IC50/EC50, VEGF_ADSC\ECFC Angio Hoechst NucArea (assay number 3) [1]: > 10 µM
IC50/EC50, Basal_Viability ATP HCT116 (assay number 25) (HCT116; basal): 2.1598 µM
IC50/EC50, GSK3b inh pretreated_Viability ATP HCT116 (assay number 26) [2]: 3.5177 µM
IC50/EC50, Basal_Viability ATP HT-29 (assay number 28) (HT-29; basal): 2.8613 µM
IC50/EC50, VEGF_ADSC\ECFC Angio CD31 TubeArea (assay number 2) [3]: > 10 µM
IC50/EC50, Basal_Viability ATP SNU-C1 (assay number 30) (SNU-C1; basal): 1.4252 µM
IC50/EC50, Basal_Viability ATP Colo 320 (assay number 27) (Colo320; basal): 3.6991 µM
IC50/EC50, Basal_Viability ATP RKO (assay number 29) (RKO; basal): 2.6022 µM

CNS(=O)(=O)CCc1ccc2[nH]cc(C3CCN(C)CC3)c2c1.Cl [NCGC00181786-02]
IC50/EC50, Basal_Viability ATP DLD-1 (assay number 23) (DLD-1; basal): > 20 µM
IC50/EC50, Basal_Viability ATP SW480 (assay number 24) (SW480; basal): > 20 µM
IC50/EC50, VEGF_ADSC\ECFC Angio Hoechst NucArea (assay number 3) [1]: > 10 µM
IC50/EC50, Basal_Viability ATP HCT116 (assay number 25) (HCT116; basal): > 20 µM
IC50/EC50, GSK3b inh pretreated_Viability ATP HCT116 (assay number 26) [2]: 12.1308 µM
IC50/EC50, Basal_Viability ATP HT-29 (assay number 28) (HT-29; basal): > 20 µM
IC50/EC50, VEGF_ADSC\ECFC Angio CD31 TubeArea (assay number 2) [3]: > 10 µM
IC50/EC50, Basal_Viability ATP SNU-C1 (assay number 30) (SNU-C1; basal): > 20 µM
IC50/EC50, Basal_Viability ATP Colo 320 (assay number 27) (Colo320; basal): > 20 µM
IC50/EC50, Basal_Viability ATP RKO (assay number 29) (RKO; basal): > 20 µM

CCCCCCCC[N+](C)(C)CCCCCCCC [NCGC00182056-04]
Basal_Viability ATP DLD-1 IC50/EC50 (DLD-1; assay number 23, basal): 3.2197 µM
Basal_Viability ATP SW480 IC50/EC50 (SW480; assay number 24, basal): 3.4577 µM
VEGF_ADSC\ECFC Angio Hoechst NucArea IC50/EC50 [1]: 7.431 µM
Basal_Viability ATP HCT116 IC50/EC50 (HCT116; assay number 25, basal): 6.2411 µM
GSK3b inh pretreated_Viability ATP HCT116 IC50/EC50 [2, 4]: 3.6902 µM
Basal_Viability ATP HT-29 IC50/EC50 (HT-29; assay number 28, basal): 3.9986 µM
VEGF_ADSC\ECFC Angio CD31 TubeArea IC50/EC50 [3]: 1.3911 µM
Basal_Viability ATP SNU-C1 IC50/EC50 (SNU-C1; assay number 30, basal): 1.4417 µM
Basal_Viability ATP Colo 320 IC50/EC50 (Colo320; assay number 27, basal): 4.6621 µM
Basal_Viability ATP RKO IC50/EC50 (RKO; assay number 29, basal): 2.183 µM

Cc1c(O)cc2c(c1C)O[C@](C)(CCC[C@H](C)CCC[C@H](C)CCCC(C)C)CC2 [NCGC00185764-03]
Basal_Viability ATP DLD-1 IC50/EC50 (DLD-1; assay number 23, basal): > 20 µM
Basal_Viability ATP SW480 IC50/EC50 (SW480; assay number 24, basal): > 20 µM
VEGF_ADSC\ECFC Angio Hoechst NucArea IC50/EC50 [1]: > 10 µM
Basal_Viability ATP HCT116 IC50/EC50 (HCT116; assay number 25, basal): > 20 µM
GSK3b inh pretreated_Viability ATP HCT116 IC50/EC50 [2, 4]: > 20 µM
Basal_Viability ATP HT-29 IC50/EC50 (HT-29; assay number 28, basal): > 20 µM
VEGF_ADSC\ECFC Angio CD31 TubeArea IC50/EC50 [3]: > 10 µM
Basal_Viability ATP SNU-C1 IC50/EC50 (SNU-C1; assay number 30, basal): > 20 µM
Basal_Viability ATP Colo 320 IC50/EC50 (Colo320; assay number 27, basal): > 20 µM
Basal_Viability ATP RKO IC50/EC50 (RKO; assay number 29, basal): > 20 µM

COC(=O)C1=C(C)NC(C)=C(C(=O)O[C@@H]2CCCN(Cc3ccccc3)C2)[C@@H]1c1cccc([N+](=O)[O-])c1.Cl [NCGC00185768-01]
Basal_Viability ATP DLD-1 IC50/EC50 (DLD-1; assay number 23): 7.9596 µM
Basal_Viability ATP SW480 IC50/EC50 (SW480; assay number 24): > 20 µM
VEGF_ADSC\ECFC Angio Hoechst NucArea IC50/EC50 [1]: > 10 µM
Basal_Viability ATP HCT116 IC50/EC50 (HCT116; assay number 25, basal): 4.2797 µM
GSK3b inh pretreated_Viability ATP HCT116 IC50/EC50 [2, 4]: 5.3147 µM
Basal_Viability ATP HT-29 IC50/EC50 (HT-29; assay number 28): 5.2728 µM
VEGF_ADSC\ECFC Angio CD31 TubeArea IC50/EC50 [3]: > 10 µM
Basal_Viability ATP SNU-C1 IC50/EC50 (SNU-C1; assay number 30): 5.7601 µM
Basal_Viability ATP Colo 320 IC50/EC50 (Colo320; assay number 27): 19.5148 µM
Basal_Viability ATP RKO IC50/EC50 (RKO; assay number 29): 8.0546 µM

CCCCCCCCCCCCCCCCCCOP(=O)([O-])OC1CC[N+](C)(C)CC1 [NCGC00187909-02]
Basal_Viability ATP DLD-1 IC50/EC50 (DLD-1; [5]): > 20 µM
Basal_Viability ATP SW480 IC50/EC50 (SW480; [6]): 0.8519 µM
VEGF_ADSC\ECFC Angio Hoechst NucArea IC50/EC50 [1]: > 10 µM
Basal_Viability ATP HCT116 IC50/EC50 (HCT116; [7]): 3.1704 µM
GSK3b inh pretreated_Viability ATP HCT116 IC50/EC50 [2, 8]: 5.7889 µM
Basal_Viability ATP HT-29 IC50/EC50 (HT-29; [9]): 6.9016 µM
VEGF_ADSC\ECFC Angio CD31 TubeArea IC50/EC50 [3]: > 10 µM
Basal_Viability ATP SNU-C1 IC50/EC50 (SNU-C1; [10]): > 20 µM
Basal_Viability ATP Colo 320 IC50/EC50 (Colo320; [11]): 2.358 µM
Basal_Viability ATP RKO IC50/EC50 (RKO; [12]): 2.0992 µM

CCOC(=O)/C=C(C)/C=C/C[C@@H](C)CCCC(C)C [NCGC00248275-02]
Basal_Viability ATP DLD-1 IC50/EC50 (DLD-1; [5]): > 20 µM
Basal_Viability ATP SW480 IC50/EC50 (SW480; [6]): > 20 µM
VEGF_ADSC\ECFC Angio Hoechst NucArea IC50/EC50 [1]: > 10 µM
Basal_Viability ATP HCT116 IC50/EC50 (HCT116; [7]): > 20 µM
GSK3b inh pretreated_Viability ATP HCT116 IC50/EC50 [2, 8]: > 20 µM
Basal_Viability ATP HT-29 IC50/EC50 (HT-29; [9]): > 20 µM
VEGF_ADSC\ECFC Angio CD31 TubeArea IC50/EC50 [3]: > 10 µM
Basal_Viability ATP SNU-C1 IC50/EC50 (SNU-C1; [10]): > 20 µM
Basal_Viability ATP Colo 320 IC50/EC50 (Colo320; [11]): > 20 µM
Basal_Viability ATP RKO IC50/EC50 (RKO; [12]): > 20 µM
